The results in this text go back to patent publication US20240401094A1, “SOLID FORM OF (-)-AMBROX FORMED BY A BIOCONVERSION OF HOMOFARNESOL IN THE PRESENCE OF A BIOCATALYST” (Givaudan SA, priority 2016, published 2024).

Bounds are passed on as bounds.

This experiment is described as follows: Sensory analysis (odour / GC-detection threshold and odour character). As to conditions: for odour description: result in words. From the text: Purpose: to Carry Out a Sensory Analysis of (−)-Ambrox and the Compounds (II), (III) and (IV) Formed in the Crude Material and in the Crystallised Material.

Regarding `CC1(C)CCC[C@@]2(C)[C@H]1CC[C@@]1(C)OCC[C@@H]21` [Compound (III), epi-Ambrox], for the setting “compared with (−)-Ambrox”, the “GC-threshold relative to (−)-Ambrox (times higher)” value is “about 10 ×” and the “odor weaker than (−)-Ambrox” value is listed as “about 10 fold”. The GC-detection threshold entry (sensory analysis) is recorded as “circa 2 ng”. For the same compound, the odour description result (sensory analysis, listed as Compound III) is reported as “essentially odorless”. Also, for the setting “sensory analysis, listed as III”, the odour description entry is reported as “weaker odour”.
Consider `C/C1=C/CCO[C@@]2(C)CCCC(C)(C)[C@@H]2CC1` [Compound (II)], for which the detection threshold (as stated in the description) was > 500 ng/L. Also, the GC-detection threshold (sensory analysis) is > 500 ng. The odour description result is, setting by setting: (sensory analysis) ““odorless””; (sensory analysis, listed as II) “weaker odour”; (sensory analysis, listed as compound of formula (II)) “practically odourless”.
For `CC1(C)CCC[C@]2(C)[C@H]3CCO[C@]3(C)CC[C@@H]12` [(−)-Ambrox], the “Odour Threshold” value (sensory analysis) was 0.2 ng/L.
Consider `CC1(C)CCC[C@@]2(C)[C@H]1CC[C@]1(C)OCC[C@@H]21` [Compound (IV)], for which, where the note is “sensory analysis”, the GC-detection threshold was in the range of 5 to 10 ng and the odour description entry is recorded as “weak, IsoE, woody”. Also, the odour description result (sensory analysis, listed as IV) is “weaker odour”.
